From ChEMBL document CHEMBL3885881, “DrugMatrix”

Organism: Rattus norvegicus
Experiment: DrugMatrix - Regimen: Daily Repeat
Format: toxicity, organism-based, Sprague-Dawley
Parameters: regimen Daily Repeat, gender Male, age 6-8 weeks
Settings: in vivo, iv, 50 mg/kg, dose level Low, vehicle 100 % SALINE; for ABSOLUTE BASOPHIL / ABSOLUTE EOSINOPHIL / ABSOLUTE LYMPHOCYTE / ABSOLUTE MONOCYTE / ABSOLUTE SEGMENTED NEUTROPHIL / BASOPHIL / EOSINOPHIL / ERYTHROCYTE COUNT / HEMATOCRIT / HEMOGLOBIN / LEUKOCYTE COUNT / LYMPHOCYTE / MEAN CORPUSCULAR HEMOGLOBIN / MEAN CORPUSCULAR HEMOGLOBIN CONCENTRATION / MEAN CORPUSCULAR VOLUME / MONOCYTE / NEUTROPHIL / NUCLEATED RED BLOOD CELLS / PLATELET COUNT: tissue Blood; for ALANINE AMINOTRANSFERASE / ALBUMIN / ALKALINE PHOSPHATASE / ASPARTATE AMINOTRANSFERASE / BLOOD UREA NITROGEN / CARBON DIOXIDE / CHLORIDE / CHOLESTEROL / CREATINE PHOSPHOKINASE / CREATININE / GLUCOSE / LACTATE DEHYDROGENASE / LIPASE / PHOSPHORUS / POTASSIUM / SODIUM / TOTAL BILIRUBIN / TOTAL PROTEIN / URIC ACID: tissue Plasma

CC1(C)S[C@@H]2[C@H](NC(=O)Cc3ccccc3)C(=O)N2[C@H]1C(=O)O [PENICILLIN G]
ABSOLUTE BASOPHIL (72 h, time 3 day): 0 CELLS/uL | ABSOLUTE EOSINOPHIL (72 h, time 3 day): 74.67 CELLS/uL | ABSOLUTE LYMPHOCYTE (72 h, time 3 day): 13141.67 CELLS/uL | ABSOLUTE MONOCYTE (72 h, time 3 day): 398.33 CELLS/uL | ABSOLUTE SEGMENTED NEUTROPHIL (72 h, time 3 day): 1318.67 CELLS/uL | BASOPHIL (72 h, time 3 day): 0% | EOSINOPHIL (72 h, time 3 day): 0.67% | ERYTHROCYTE COUNT (72 h, time 3 day): 5.85 x10E6/uL | HEMATOCRIT (72 h, time 3 day): 37.47% | HEMOGLOBIN (72 h, time 3 day): 13.8 G/DL | LEUKOCYTE COUNT (72 h, time 3 day): 14.93 x10E3/uL | LYMPHOCYTE (72 h, time 3 day): 87.67% | MEAN CORPUSCULAR HEMOGLOBIN (72 h, time 3 day): 23.6 pg | MEAN CORPUSCULAR HEMOGLOBIN CONCENTRATION (72 h, time 3 day): 36.87 G/DL | MEAN CORPUSCULAR VOLUME (72 h, time 3 day): 64.07 fL | MONOCYTE (72 h, time 3 day): 2.67% | NEUTROPHIL (72 h, time 3 day): 9% | NUCLEATED RED BLOOD CELLS (72 h, time 3 day): 0 /100WBC | PLATELET COUNT (72 h, time 3 day): 1362 x10E3/uL | ALANINE AMINOTRANSFERASE (72 h, time 3 day): 56.33 u/L | ALBUMIN (72 h, time 3 day): 4.37 G/DL | ALKALINE PHOSPHATASE (72 h, time 3 day): 354 u/L | ASPARTATE AMINOTRANSFERASE (72 h, time 3 day): 76.67 u/L | BLOOD UREA NITROGEN (72 h, time 3 day): 13.33 mg/dL | CARBON DIOXIDE (72 h, time 3 day): 24.33 mmol/L | CHLORIDE (72 h, time 3 day): 103.67 MEQ/L | CHOLESTEROL (72 h, time 3 day): 82.67 mg/dL | CREATINE PHOSPHOKINASE (72 h, time 3 day): 122 u/L | CREATININE (72 h, time 3 day): 0.21 mg/dL | GLUCOSE (72 h, time 3 day): 172 mg/dL | LACTATE DEHYDROGENASE (72 h, time 3 day): 124 u/L | LIPASE (72 h, time 3 day): 10 u/L | PHOSPHORUS (72 h, time 3 day): 12.63 mg/dL | POTASSIUM (72 h, time 3 day): 6.23 MEQ/L | SODIUM (72 h, time 3 day): 146.33 MEQ/L | TOTAL BILIRUBIN (72 h, time 3 day): 0.23 mg/dL | TOTAL PROTEIN (72 h, time 3 day): 6.07 G/DL | URIC ACID (72 h, time 3 day): 1.57 mg/dL | ABSOLUTE BASOPHIL (120 h, time 5 day): 0 CELLS/uL | ABSOLUTE EOSINOPHIL (120 h, time 5 day): 0 CELLS/uL | ABSOLUTE LYMPHOCYTE (120 h, time 5 day): 11488.33 CELLS/uL | ABSOLUTE MONOCYTE (120 h, time 5 day): 166 CELLS/uL | ABSOLUTE SEGMENTED NEUTROPHIL (120 h, time 5 day): 512.33 CELLS/uL | BASOPHIL (120 h, time 5 day): 0% | EOSINOPHIL (120 h, time 5 day): 0% | ERYTHROCYTE COUNT (120 h, time 5 day): 5.58 x10E6/uL | HEMATOCRIT (120 h, time 5 day): 36.13% | HEMOGLOBIN (120 h, time 5 day): 13.43 G/DL | LEUKOCYTE COUNT (120 h, time 5 day): 12.17 x10E3/uL | LYMPHOCYTE (120 h, time 5 day): 94.33% | MEAN CORPUSCULAR HEMOGLOBIN (120 h, time 5 day): 24.07 pg | MEAN CORPUSCULAR HEMOGLOBIN CONCENTRATION (120 h, time 5 day): 37.17 G/DL | MEAN CORPUSCULAR VOLUME (120 h, time 5 day): 64.8 fL | MONOCYTE (120 h, time 5 day): 1.33% | NEUTROPHIL (120 h, time 5 day): 4.33% | NUCLEATED RED BLOOD CELLS (120 h, time 5 day): 0 /100WBC | PLATELET COUNT (120 h, time 5 day): 1442 x10E3/uL | ALANINE AMINOTRANSFERASE (120 h, time 5 day): 49.33 u/L | ALBUMIN (120 h, time 5 day): 4.27 G/DL | ALKALINE PHOSPHATASE (120 h, time 5 day): 371 u/L | ASPARTATE AMINOTRANSFERASE (120 h, time 5 day): 81.33 u/L | BLOOD UREA NITROGEN (120 h, time 5 day): 15.33 mg/dL | CARBON DIOXIDE (120 h, time 5 day): 21.67 mmol/L | CHLORIDE (120 h, time 5 day): 107 MEQ/L | CHOLESTEROL (120 h, time 5 day): 79.33 mg/dL | CREATINE PHOSPHOKINASE (120 h, time 5 day): 245.67 u/L | CREATININE (120 h, time 5 day): 0.42 mg/dL | GLUCOSE (120 h, time 5 day): 151.67 mg/dL | LACTATE DEHYDROGENASE (120 h, time 5 day): 117.67 u/L | LIPASE (120 h, time 5 day): 11.5 u/L | PHOSPHORUS (120 h, time 5 day): 12.33 mg/dL | POTASSIUM (120 h, time 5 day): 6.79 MEQ/L | SODIUM (120 h, time 5 day): 144.2 MEQ/L | TOTAL BILIRUBIN (120 h, time 5 day): 0.23 mg/dL | TOTAL PROTEIN (120 h, time 5 day): 6.07 G/DL | URIC ACID (120 h, time 5 day): 2 mg/dL
